In patent US6632817B2, “Fluoromethoximino compounds” (priority 1997, dated 2003):

Experiments:
Plasmopara viticola = assay: Plasmopara test (grapevine)/protective; type: in vivo; settings: protective, application rate 100 g/ha, evaluation 6 days after inoculation; for pest or weed control at 100 g/ha: Plasmopara viticola, 144 h, read-out: Efficacy in %
Procedure: Plasmopara Test (Grapevine)/Protective
(§1) Solvent: 47 parts by weight of acetone
(§2) Emulsifier: 3 parts by weight of alkylaryl polyglycol ether
(§3) To produce a suitable preparation of active compound, 1 part by weight of active compound is mixed with the stated amounts of solvent and emulsifier, and the concentrate is diluted with water to the desired concentration.
To test for protective activity, young plants are sprayed with the preparation of active compound at the stated application rate. After the spray coating has dried on, the plants are inoculated with an aqueous spore suspension of Plasmopara viticola and then remain in an incubation cabin at approximately 20° C. and 100% relative atmospheric humidity for 1 day. The plants are subsequently placed in a greenhouse at approximately 21° C. and approximately 90% relative atmospheric humidity for 5 days. The plants are then moistened and placed in an incubation cabin for 1 day.
Evaluation is carried out 6 days after the inoculation. 0% means an efficacy which corresponds to that of the control, whereas an efficacy of 100% means that no infection is observed.

Venturia inaequalis = assay: Venturia test (apple)/protective; type: in vivo; settings: protective, evaluation 12 days after inoculation; for pest or weed control at 10 g/ha / Efficacy in %: application rate 10 g/ha
Procedure: Venturia Test (Apple)/Protective
as §1, §2, §3
To test for protective activity, young plants are sprayed with the preparation of active compound at the stated application rate. After the spray coating has dried on, the plants are inoculated with an aqueous conidia suspension of the causative organism of apple scab Venturia inaequalis and then remain in an incubation cabin at approximately 20° C. and 100% relative atmospheric humidity for 1 day.
The plants are then placed in a greenhouse at approximately 21° C. and a relative atmospheric humidity of approximately 90%.
Evaluation is carried out 12 days after the inoculation. 0% means an efficacy which corresponds to that of the control, whereas an efficacy of 100% means that no infection is observed.

Puccinia recondita = assay: Puccinia test (wheat)/protective; type: in vivo; settings: protective, application rate 250 g/ha, evaluation 10 days after inoculation; for pest or weed control at 250 g/ha: Puccinia recondita, 240 h, read-out: Efficacy in %
Procedure: Puccinia Test (Wheat)/Protective
Solvent: 25 parts by weight of N,N-dimethylacetamide
Emulsifier: 0.6 part by weight of alkylaryl polyglycol ether
as §3
To test for protective activity, young plants are sprayed with the preparation of active compound at the stated application rate. After the spray coating has dried on, the plants are sprayed with a conidia suspension of Puccinia recondita. The plants remain in an incubation cabin at 20° C. and 100% relative atmospheric humidity for 48 hours.
The plants are then placed in a greenhouse at a temperature of approximately 20° C. and a relative atmospheric humidity of 80% to promote the development of rust pustules.
Evaluation is carried out 10 days after the inoculation. 0% means an efficacy which corresponds to that of the control, whereas an efficacy of 100% means that no infection is observed.

[1] = logP determination by HPLC (EEC Directive 79/831 Annex V. A8); type: physicochemical; settings: HPLC gradient method, acetonitrile/0.1% aqueous phosphoric acid
Procedure: The logP values are determined in accordance with EEC Directive 79/831 Annex V. A8 by HPLC (gradient method, acetonitrile/0.1% aqueous phosphoric acid).

[2] = Venturia inaequalis, 288 h, read-out: Efficacy in %

CNC(=O)/C(=N\OCF)c1ccccc1Oc1ncnc(Oc2ccccc2Cl)c1F [drawing 64]
pest or weed control at 100 g/ha (Plasmopara viticola): 100%

CNC(=O)/C(=N\OCF)c1ccccc1Oc1ncnc(Oc2ccccc2C#N)c1F [drawing 60]
Efficacy in % (Plasmopara viticola): 96%

CNC(=O)C(NOCF)c1ccccc1Oc1ncnc(Oc2ccccc2)c1F (stereo not shown) [drawing 73]
pest or weed control at 10 g/ha (Venturia inaequalis; [2]): 96%

CNC(=O)/C(=N\OCF)c1ccccc1Oc1nc(-c2cccc(C(F)(F)F)c2)ns1 [drawing 94]
Efficacy in % (Puccinia recondita): 100%

CNC(=O)/C(=N\OCF)c1ccccc1Oc1nc(-c2cccc(OC(F)(F)F)c2)ns1 [Example 23]
chromatographic logP [1]: 3.8
pest or weed control at 100 g/ha (Plasmopara viticola): ≥ 98%
pest or weed control at 10 g/ha (Venturia inaequalis; [2]): ≥ 99%

CNC(=O)C(=NOCF)c1ccccc1Oc1ncnc(Oc2ccccc2Cl)c1F [drawing 51]
Efficacy in % (Plasmopara viticola): 100%

CNC(=O)/C(=N\OCF)c1ccccc1Oc1ncnc(Oc2cccc(C)c2Cl)c1F [Example 27]
chromatographic logP [1]: 3.32
pest or weed control at 100 g/ha (Plasmopara viticola): ≥ 98%

CNC(=O)C(NOCF)c1ccccc1Oc1ncnc(Oc2ccccc2)c1F (stereo not shown) [drawing 57]
pest or weed control at 100 g/ha (Plasmopara viticola): 100%

CNC(=O)/C(=N\OCF)c1ccccc1Oc1nc(-c2ccc(C(F)(F)F)cc2)ns1 [Example 19]
chromatographic logP [1]: 3.7
pest or weed control at 100 g/ha (Plasmopara viticola): ≥ 98%
pest or weed control at 10 g/ha (Venturia inaequalis; [2]): ≥ 99%
pest or weed control at 250 g/ha (Puccinia recondita): ≥ 80%

CNC(=O)/C(=N\OCF)c1ccccc1Oc1nc(-c2ccc(OC(F)F)cc2)ns1 [drawing 83]
Efficacy in % (Venturia inaequalis): 99%

CNC(=O)C(=NOCF)c1ccccc1Oc1ncnc(Oc2ccccc2Cl)c1F [drawing 69]
Efficacy in % (Venturia inaequalis): 99%

CNC(=O)/C(=N\OCF)c1ccccc1Oc1nc(-c2ccc(OC(F)(F)F)cc2)ns1 [drawing 63]
Efficacy in % (Plasmopara viticola): 100%

COC(=O)C(=NOCF)c1ccccc1Oc1ncnc(Oc2ccccc2Cl)c1F [drawing 50]
Efficacy in % (Plasmopara viticola): 98%

CNC(=O)/C(=N\OCF)c1ccccc1Oc1ncnc(Oc2cccc(Cl)c2C)c1F [drawing 53]
Efficacy in % (Plasmopara viticola): 100%

CNC(=O)/C(=N\OCF)c1ccccc1Oc1nc(-c2ccc(OC(F)(F)F)cc2)ns1 [drawing 80]
Efficacy in % (Venturia inaequalis): 100%

CNC(=O)/C(=N\OCF)c1ccccc1Oc1nc(-c2cccc(OC(F)F)c2)ns1 [drawing 82]
pest or weed control at 10 g/ha (Venturia inaequalis; [2]): 100%

CNC(=O)C(NOCF)c1ccccc1Oc1ncnc(Oc2ccccc2[N+](=O)[O-])c1F (stereo not shown) [drawing 89]
pest or weed control at 250 g/ha (Puccinia recondita): 100%

CNC(=O)C(NOCF)c1ccccc1Oc1ncnc(Oc2cccc(Cl)c2Cl)c1F (stereo not shown) [drawing 71]
pest or weed control at 10 g/ha (Venturia inaequalis; [2]): 96%

CNC(=O)C(NOCF)c1ccccc1Oc1ncnc(Oc2ccccc2)c1F (stereo not shown) [drawing 88]
pest or weed control at 250 g/ha (Puccinia recondita): 100%

CNC(=O)/C(=N\OCF)c1ccccc1Oc1nc(-c2ccc(C(F)(F)F)cc2)ns1 [drawing 78]
pest or weed control at 19 g/ha (Venturia inaequalis; Venturia inaequalis, 288 h, application rate 19 g/ha, read-out: Efficacy in %): 100%

CNC(=O)/C(=N\OCF)c1ccccc1Oc1ncnc(Oc2ccccc2C)c1F [drawing 52]
Efficacy in % (Plasmopara viticola): 100%

CNC(=O)/C(=N\OCF)c1ccccc1Oc1ncnc(Oc2ccccc2C#N)c1F [drawing 91]
Efficacy in % (Puccinia recondita): 100%

CNC(=O)/C(=N\OCF)c1ccccc1Oc1ncnc(Oc2cccc(C)c2Cl)c1F [drawing 67]
Efficacy in % (Plasmopara viticola): 100%

CNC(=O)/C(=N\OCF)c1ccccc1Oc1nc(-c2cccc(OC(F)(F)F)c2)ns1 [drawing 54]
Efficacy in % (Plasmopara viticola): 100%

COC(=O)C(=NOCF)c1ccccc1Oc1ncnc(Oc2ccccc2Cl)c1F [drawing 68]
Efficacy in % (Venturia inaequalis): 100%

CNC(=O)/C(=N\OCF)c1ccccc1Oc1ncnc(Oc2ccccc2Cl)c1F [drawing 81]
pest or weed control at 10 g/ha (Venturia inaequalis; [2]): 100%

CNC(=O)/C(=N\OCF)c1ccccc1Oc1nc(-c2cccc(C(F)(F)F)c2)ns1 [drawing 79]
Efficacy in % (Venturia inaequalis): 100%

CNC(=O)/C(=N\OCF)c1ccccc1Oc1ncnc(Oc2ccccc2C)c1F [Example 11]
chromatographic logP [1]: 3
pest or weed control at 100 g/ha (Plasmopara viticola): ≥ 98%
pest or weed control at 10 g/ha (Venturia inaequalis; [2]): ≥ 99%
pest or weed control at 250 g/ha (Puccinia recondita): ≥ 80%

CNC(=O)/C(=N\OCF)c1ccccc1Oc1nc(-c2ccc(OC(F)F)cc2)ns1 [drawing 97]
Efficacy in % (Puccinia recondita): 100%

CNC(=O)/C(=N\OCF)c1ccccc1Oc1nc(-c2ccc(C(F)(F)F)cc2)ns1 [drawing 93]
Efficacy in % (Puccinia recondita): 100%

CNC(=O)/C(=N\OCF)c1ccccc1Oc1ncnc(Oc2ccccc2OC(F)F)c1F [drawing 87]
Efficacy in % (Puccinia recondita): 100%

CNC(=O)/C(=N\OCF)c1ccccc1Oc1ncnc(Oc2cccc(Cl)c2C)c1F [drawing 76]
Efficacy in % (Venturia inaequalis): 98%

CNC(=O)/C(=N\OCF)c1ccccc1Oc1ncnc(Oc2ccccc2Cl)c1F [drawing 96]
pest or weed control at 250 g/ha (Puccinia recondita): 100%

CNC(=O)/C(=N\OCF)c1ccccc1Oc1nc(-c2cccc(OC(F)(F)F)c2)ns1 [drawing 77]
Efficacy in % (Venturia inaequalis): 100%

COC(=O)C(=NOCF)c1ccccc1O [Example (II-1), methyl 2-fluoromethoxyimino-2-(2-hydroxyphenyl)-acetate]
chromatographic logP [1]: 1.6

CNC(=O)/C(=N\OCF)c1ccccc1Oc1nc(-c2cccc(C(F)(F)F)c2)ns1 [drawing 62]
Efficacy in % (Plasmopara viticola): 100%

CNC(=O)C(NOCF)c1ccccc1Oc1ncnc(Oc2cccc(Cl)c2Cl)c1F (stereo not shown) [drawing 86]
pest or weed control at 250 g/ha (Puccinia recondita): 100%

CNC(=O)C(=NOCF)c1ccccc1Oc1nc(-c2ccccc2)ns1 [drawing 55]
Efficacy in % (Plasmopara viticola): 100%

CNC(=O)/C(=N\OCF)c1ccccc1Oc1ncnc(Oc2ccccc2OC(F)F)c1F [drawing 72]
Efficacy in % (Venturia inaequalis): 95%

CNC(=O)/C(=N\OCF)c1ccccc1Oc1ncnc(Oc2ccccc2C)c1F [drawing 92]
Efficacy in % (Puccinia recondita): 100%

CNC(=O)/C(=N\OCF)c1ccccc1Oc1ncnc(Oc2cccc(C)c2C)c1F [drawing 59]
Efficacy in % (Plasmopara viticola): 100%

CNC(=O)/C(=N\OCF)c1ccccc1Oc1ncnc(Oc2cccc(C)c2C)c1F [drawing 90]
Efficacy in % (Puccinia recondita): 100%

CNC(=O)/C(=N\OCF)c1ccccc1Oc1ncnc(Oc2ccccc2OC(F)F)c1F [drawing 56]
Efficacy in % (Plasmopara viticola): 96%

CNC(=O)C(=NOCF)c1ccccc1O [Example (II-2), 2-fluoromethoxyimino-2-(2-hydroxyphenyl)-N-methylacetamide]
chromatographic logP [1]: 1.1

CNC(=O)/C(=N\OCF)c1ccccc1Oc1nc(-c2ccc(OC(F)F)cc2)ns1 [drawing 66]
Efficacy in % (Plasmopara viticola): 100%

COC(=O)C(=NOCF)c1ccccc1OC1CCCCO1 (stereo not shown) [Example (VI-1), methyl 2-fluoromethoxyimino-2-[2-(tetrahydropyran-2-yloxy)-phenyl]-acetate]
chromatographic logP [1]: 2.8

CNC(=O)C(=NOCF)c1ccccc1Oc1nc(-c2ccccc2)ns1 [drawing 70]
Efficacy in % (Venturia inaequalis): 100%

CNC(=O)C(=NOCF)c1ccccc1Oc1ncnc(Oc2ccccc2Cl)c1F [drawing 85]
Efficacy in % (Puccinia recondita): 100%

CNC(=O)C(=NOCF)c1ccccc1Oc1nc(-c2ccccc2)ns1 [Example 3, 2-fluoromethoxyimino-N-methyl-2-[2-(3-phenyl-[1,2,4]thiadiazol-5-yloxy)-phenyl]-acetamide]
chromatographic logP [1]: 2.9
pest or weed control at 100 g/ha (Plasmopara viticola): ≥ 98%
pest or weed control at 10 g/ha (Venturia inaequalis; [2]): ≥ 99%

CNC(=O)/C(=N\OCF)c1ccccc1Oc1nc(-c2ccc(C(F)(F)F)cc2)ns1 [drawing 61]
Efficacy in % (Plasmopara viticola): 100%

COC(=O)C(=NOCF)c1ccccc1Oc1ncnc(Oc2ccccc2Cl)c1F [drawing 84]
Efficacy in % (Puccinia recondita): 80%

CNC(=O)/C(=N\OCF)c1ccccc1Oc1ncnc(Oc2ccccc2C)c1F [drawing 75]
Efficacy in % (Venturia inaequalis): 100%

CNC(=O)C(NOCF)c1ccccc1Oc1ncnc(Oc2ccccc2[N+](=O)[O-])c1F (stereo not shown) [drawing 58]
pest or weed control at 100 g/ha (Plasmopara viticola): 96%

CNC(=O)/C(=N\OCF)c1ccccc1Oc1nc(-c2cccc(OC(F)F)c2)ns1 [drawing 65]
pest or weed control at 100 g/ha (Plasmopara viticola): 99%

CNC(=O)/C(=N\OCF)c1ccccc1Oc1nc(-c2ccc(OC(F)(F)F)cc2)ns1 [drawing 95]
Efficacy in % (Puccinia recondita): 100%

CNC(=O)/C(=N\OCF)c1ccccc1Oc1ncnc(Oc2cccc(C)c2C)c1F [drawing 74]
Efficacy in % (Venturia inaequalis): 100%
